SMILES strings stand for the structures. pIC50: −log10 of the molar value. In brackets after ≈: the same amount, converted by molar mass. Entries after “also recorded” stand apart in the source; their conditions may differ.

For data set [1], the system named is agr activity, AH1677 (agr I). In words: microbe, parasite or virus in culture. Format: cell-based. The note with it: Staphylococcus aureus, 24 h, read-out: IC50 for quorum sensing inhibitory activity. How it is done: (§1) S. aureus agr reporter strains AH1677 (agr I), AH430 (agr II), AH1747 (agr III) and AH1872 (agr IV) were grown overnight in TSB supplemented with chloramphenicol at 37 °C while shaking at 200 rpm. Cultures of S. aureus were standardized by optical density (OD600nm) matching to a 0.5 McFarland standard to reach a final inoculum density in the wells of 5 × 10^5 CFU mL^−1 in TSB, supplemented with 10 μg/mL chloramphenicol. […] Black sided, 96-well, clear bottom, tissue-culture treated plates (Costar 3603) with final well volume of 200 μL were used for all agr inhibition assays. Plates were incubated in a humidified chamber at 37 °C while shaking at 260 rpm. After 24 hours, plates were removed and OD600 and fluorescence were measured by plate reader at an excitation of 493 nm and emission of 535 nm. All tests were performed in triplicate and repeated using a new stock of bacteria on a separate day.

Data set [2] relates to agr activity, AH1747 (agr III). The experiment in a line: microbe, parasite or virus in culture. Format: cell-based. The note with it: Staphylococcus aureus, 24 h; for pIC50: read-out: IC50 for quorum sensing inhibitory activity; for IC90: read-out: IC90 for quorum sensing inhibitory activity. As to the method:
as §1

Data set [3] deals with agr activity, AH1872 (agr IV). In words: microbe, parasite or virus in culture. It counts as cell-based. The note with it: Staphylococcus aureus, 24 h; for pIC50: read-out: IC50 for quorum sensing inhibitory activity. As to the method: as §1
Data set [4] deals with all S. aureus accessory gene regulator (agr) alleles. The experiment in a line: microbe, parasite or virus in culture. To be noted: Staphylococcus aureus, read-out: IC50 values for quorum sensing inhibition, range over all four agr types. Format: cell-based. How it is done: as §1
Data set [5] relates to agr activity, AH430 (agr II). The experiment in a line: microbe, parasite or virus in culture. Format: cell-based. To be noted: Staphylococcus aureus, 24 h; for pIC50: read-out: IC50 for quorum sensing inhibitory activity; for IC90: read-out: IC90 for quorum sensing inhibitory activity. How it is done:
as §1

The test system of the next data set is MRSA (LAC, USA300). In words: Murine model of MRSA skin infection (dermonecrosis). It counts as in vivo. To be noted: BALB/c mice, intradermal, 1×10^8 CFU LAC with single 50 µg dose at time of infection; vs DMSO vehicle. An excerpt:
A previously described murine model of MRSA skin infection was used to determine the efficacy of each Schinus compound as an anti-infective[25]. All animal experiments described herein were approved by and conducted in accordance with the recommendations of the Animal Care and Use Committee at the University of Colorado Anschutz Medical Campus (IACUC protocol number 117217). One day prior to inoculation, the abdominal hair of 8 week old female BALB/c mice was shaved and chemically removed with topical application of Nair for 1 minute. LAC (USA300, AH1263) was grown in TSB media overnight at 37 °C in a shaking incubator (200 rpm). Overnight LAC culture was diluted 1:100 in fresh TSB media and allowed to grow to early log phase (~2 hr to OD600nm 0.5). Cells were washed in sterile PBS and resuspended to achieve an inoculum of 1×10^8 CFU. 50 μL inoculum suspensions containing 1×10^8 CFU LAC and 50 μg of each compound 1-3 (diluted in DMSO) or DMSO vehicle control were injected intradermally into the abdominal skin of each BALB/c mouse. Baseline body weights for the mice were taken prior to injection and each day following. For determination of lesion size, digital photos of skin lesions were taken with an iPhone camera and analyzed with ImageJ software for Mac. Inoculum CFU was verified by serial dilution, plating, and colony counting after overnight incubation of the plate.

For a further data set, the system named is S. aureus UAMS-1. In words: Broth microdilution growth inhibition (MIC). It counts as cell-based, Staphylococcus aureus. The note with it: ND = not detected at 4–563 μM; for pIC50: UAMS1, ≥50% growth inhibition. As to the method:
(§2) Fraction 430F-F5 and isolated compounds of S. terebinthifolia 1-3, were evaluated for minimum inhibitory concentrations (MICs) against the four agr groups, the biofilm test strain (UAMS-1) and NRS249 (for δ-toxin quantification experiments) following the Clinical Laboratory Standards Institute (CLSI) M100-S23 guidelines for microtiter broth dilution testing. Fraction, compounds 1-3 and vehicle were tested at a concentration range of 4 to 563 μM, using 2-fold serial dilution. The optical density (OD600nm) was measured with a BioTek Cytation 3 multimode plate reader, to calculate percent inhibition of growth. […] Control included the vehicle (DMSO) and antibiotic (Ampicillin, MP Biomedicals Inc). All tests were performed in triplicate and repeated using a new stock of bacteria on a separate day.
In general terms: In broth dilution the organism is exposed to a series of concentrations in liquid medium.

Data set [6] relates to S. aureus AH1263; LAC (agr I). In words: Broth microdilution growth inhibition (MIC). Format: cell-based, Staphylococcus aureus. The note with it: for pIC50: read-out: IC50 (growth). As to the method:
as §2

In a further data set the test system is S. aureus UAMS-929. The experiment in a line: Broth microdilution growth inhibition (MIC). It counts as cell-based, Staphylococcus aureus. The note with it: for pIC50: UAMS929, read-out: IC50 (growth). As to the method:
as §2

The test system of another data set is S. aureus NRS249 (agr I). In words: Broth microdilution growth inhibition (MIC). Format: cell-based, Staphylococcus aureus. The note with it: ND = not detected at 4–563 μM; for pIC50: ≥50% growth inhibition; for MIC: ≥90% growth inhibition. How it is done: as §2
Data set [7] can be described thus: HaCaT cytotoxicity assay (LDH). It counts as cell-based. The note with it: human, HaCaT keratinocyte cells, read-out: IC50 for cytotoxicity to HaCaTs. How it is done:
The HaCaT cell line was maintained and cytotoxicity of compounds (1-3) were assessed using the LDH cytotoxicity assay as previously described. The Therapeutic Index (TI) was calculated as a ratio of the TD50 (Toxic dose for cytotoxicity at IC50) and ED50 (effective dose for quorum sensing inhibiton IC50): = TD50/ED50 . Cytotoxicity of supernatants was further evaluated using a viability/cytotoxicity assay and imaged with fluorescent microscopy as previously described. All tests were performed in triplicate and the full experiment was repeated on a separate day using fresh cell stock.

In another data set the test system is S. aureus UAMS-1 biofilm. The experiment in a line: Biofilm formation, human plasma protein-coated microtiter assay. It counts as cell-based, Staphylococcus aureus. To be noted: crystal violet; for concentrations that reduced biofilm: for 2 and 3 bacterial growth also reduced. As to the method: All compounds were examined (2–281 μM) for impact on S. aureus biofilm formation using a human plasma protein-coated assay as previously described[49],[51],[52]. Additionally, to monitor for any growth impact in this assay, the optical density of planktonic cells in the biofilm wells was calculated by transferring the supernatant to a new 96-well plate and reading the OD600nm in a BioTek plate reader. S. aureus isolate UAMS-1 was used for the biofilm assay, and its isogenic sarA mutant (UAMS-929), which has a biofilm deficient phenotype, served as a positive control. All tests were performed in triplicate and repeated using a new stock of bacteria on a separate day.

The subject of data set [8] is S. aureus AH1747 (agr III). The experiment in a line: Broth microdilution growth inhibition (MIC). Format: cell-based, Staphylococcus aureus. The note with it: for pIC50: ≥50% growth inhibition; for pIC50 / MIC: ND = not detected at 4–563 μM; for MIC: ≥90% growth inhibition. As to the method:
as §2

[9] abbreviates: Staphylococcus aureus, UAMS1, ≥90% growth inhibition.
Where [10] appears, read: AH1263, LAC (agr I), ≥90% growth inhibition, ND = not detected at test range 4–563 μM.
Setting [11] is: UAMS-929, ≥90% growth inhibition, ND = not detected at 4–563 μM.

With `CC(=CCCC(C)C1CCC2(C)C3=CCC4C(C)(C)C(=O)CCC4(C)C3CCC12C)C(=O)O` (stereo not drawn) [Compound 2, 3-oxotirucalla-7,24Z-dien-26-oic acid], the pIC50 in [1] is 5.40; in data set [2], 5.05; in [3], 5.05; in data set [4], 5.05 to 5.70; in data set [5], 5.70; with S. aureus UAMS-1 (Staphylococcus aureus) it was 4.46. For the same compound, the pIC50 in data set [6] (Staphylococcus aureus) is 3.85; in the data set on S. aureus UAMS-929 (Staphylococcus aureus) it was 4.46; in the data set with S. aureus NRS249 (agr I) (Staphylococcus aureus) it was 5.05; in data set [7], 4.15. In addition, the IC90 in data set [2] and in [5] was 281 µM throughout. The “dermonecrotic lesion / skin damage” value in the data set on MRSA (LAC, USA300) was “reduced the dermonecrotic lesion area to nearly undetectable levels; also recorded: decreased MRSA-associated tissue damage to the limit of detection”. Also, the MIC was 70 µM (≈ 31.8 µg/mL) against S. aureus UAMS-1 (setting [9]); 70 µM (≈ 31.8 µg/mL) against S. aureus UAMS-1 (≥90% growth inhibition); 563 µM (≈ 256 µg/mL) in [6] (setting [10]); 563 µM (≈ 256 µg/mL) in data set [6] (Staphylococcus aureus); 70 µM (≈ 31.8 µg/mL) with S. aureus UAMS-929 (Staphylococcus aureus, UAMS929); 70 µM (≈ 31.8 µg/mL) in the data set on S. aureus UAMS-929 (setting [11]). Besides, the MIC in the data set on S. aureus NRS249 (agr I) (Staphylococcus aureus) and with S. aureus NRS249 (agr I) was 18 µM (≈ 8.18 µg/mL) throughout. For the same compound, in the data set on S. aureus UAMS-1 biofilm, the “concentrations that increased biofilm formation” value was in the range of 2 to 16 µM. Moreover, the “concentrations that reduced biofilm” value in the data set on S. aureus UAMS-1 biofilm is no less than 35 µM.
`CC(=CCCC(C)C1CCC2(C)C3=CCC4C(C)(C)C(O)CCC4(C)C3CCC12C)C(=O)O` (stereo not drawn) [Compound 3, 3α-hydroxytirucalla-7,24Z-dien-26-oic acid]: the pIC50 in data set [1] was 5.40; in data set [2] it was 5.05; in data set [3] it was 5.05; in data set [4], 5.05 to 5.40; in data set [5], 5.05; in data set [8] (Staphylococcus aureus) it was 5.05. Besides, the pIC50 with S. aureus UAMS-1 (Staphylococcus aureus) was 4.46; in data set [6] (Staphylococcus aureus), 4.46; with S. aureus UAMS-929 (Staphylococcus aureus), 4.46; in the data set on S. aureus NRS249 (agr I) (Staphylococcus aureus), 4.74; in [7], 4.15. For the same compound, the values for the IC90 in data set [2], in data set [3] (read-out: IC90 for quorum sensing inhibitory activity) and in [5] were 18 µM, 281 µM and 281 µM, respectively. Also, the MIC in [8] (Staphylococcus aureus) was found to be 18 µM (≈ 8.22 µg/mL); in data set [8], 18 µM (≈ 8.22 µg/mL); with S. aureus UAMS-1 (setting [9]) it was 70 µM (≈ 32 µg/mL); in the data set with S. aureus UAMS-1 (≥90% growth inhibition), 70 µM (≈ 32 µg/mL); in data set [6] (Staphylococcus aureus), 141 µM (≈ 64.4 µg/mL); against S. aureus UAMS-929 (Staphylococcus aureus, UAMS929), 70 µM (≈ 32 µg/mL). In addition, the MIC came out at 70 µM (≈ 32 µg/mL) against S. aureus UAMS-929 (setting [11]) and 281 µM (≈ 128 µg/mL) in the data set with S. aureus NRS249 (agr I) (Staphylococcus aureus). Further, the “concentrations that increased biofilm formation” value with S. aureus UAMS-1 biofilm was 2 to 16 µM. For the same compound, in the data set with S. aureus UAMS-1 biofilm, the “concentrations that reduced biofilm” value is no less than 35 µM.
`CC1(C)CCC2(C(=O)O)CCC3(C)C(=CCC4C5(C)CCC(=O)C(C)(C)C5CCC43C)C2C1` (stereo not drawn) [Compound 1, 3-oxo-olean-12-en-28-oic acid]: the pIC50 in [1] is 4.74; in data set [2] it was 4.15; in [3], 4.46; in data set [4] it was 4.15 to 5.40; in [5], 5.40; in [8] (Staphylococcus aureus) it was 3.85. Besides, the pIC50 with S. aureus UAMS-1 (Staphylococcus aureus) is less than 3.25; in data set [7], 3.85. Besides, the IC90 turned out to be 281 µM in data set [2] and 70 µM in [5]. Also, the MIC in [8] (Staphylococcus aureus) is 281 µM (≈ 128 µg/mL); with S. aureus UAMS-1 (setting [9]) it was greater than 563 µM; in data set [6] (setting [10]) it was greater than 563 µM. Also, the growth inhibition in data set [8] (at up to 80 µM) was ~ 15%. Besides, the “concentrations that increased biofilm formation” value in the data set with S. aureus UAMS-1 biofilm was 2 to 70 µM. In addition, the “concentrations that reduced biofilm” value in the data set on S. aureus UAMS-1 biofilm was in the range of 141 to 281 µM.

As usually defined, the pIC50 is the negative decadic logarithm of the IC50, by convention in mol/L. The IC90 is the point of the concentration-response curve where the effect stands at 90%. For orientation: MIC means the smallest concentration in the dilution series that meets the test's criterion for growth inhibition. A high value points to a need for much substance.

The values are drawn from paper PMC7229044, “Triterpenoid acids isolated from Schinus terebinthifolia fruits reduce Staphylococcus aureus virulence and abate dermonecrosis” (Scientific Reports, 2020).
